# Test results: a melting point compilation (Tetko et al.; mined from patent text by program, amines drawn as free bases though some values may be those of a salt)
row,Compound,melting point [°C]
1,NC1Cc2ccccc2N(c2ccccc2)C1=O (centres undefined),108 to 110
2,O=C(NCc1ccc(Cl)cc1)c1noc2ccc(I)cc2c1=O,188 to 190
3,CSc1ccc([N+](=O)[O-])c(C(=O)NCC2CCN(C(c3ccccc3)c3ccccc3)CC2)c1,179 to 181
4,COc1ccc(C(O)CN2CCN(C(c3ccccc3)c3ccccc3)CC2)c(OC)c1 (centres undefined),116
5,CNC(=O)C(C)C(O)(Cn1cncn1)c1ccc(Cl)cc1Cl (centres undefined),242 to 244
6,CCCn1c2cc(OC)ccc2c2oc(C(=O)Cl)cc21,195 to 196
7,O=CN(Cc1ccccn1)C1(c2ccc(-c3ccccc3)cc2)CCC1,101
8,Cc1cccc2[nH]c(C(=O)OC(C)C)c(Sc3ccc(Cl)cc3)c12,190 to 192
9,O=C1c2ccccc2C(=O)N1Cc1ncc(/C=C/C(c2cc(Cl)c(Cl)c(Cl)c2)C(F)(F)F)cc1Cl (centres undefined),79 to 82
10,CCOC(=O)C(CC(=O)c1ccc2cc(OC)ccc2c1)C(=O)c1ccccc1 (centres undefined),136 to 137
11,O=C(O)Cn1c(=O)c2cc(Cl)ccc2n(Cc2ccc(F)cc2)c1=O,211 to 212
12,CC(C)c1cc2c(cc1O)C(C)(C)CCC2(C)C,79 to 80
13,Cn1nc2c(N)nc3ccccc3c2c1CC(C)(C)NC(=O)c1ccccc1,194 to 196
14,O=C(NC(CCc1ccccc1)c1nnco1)c1ccc2[nH]c(-c3ccncc3)nc2c1 (centres undefined),103
15,O=C(O)c1cn(C2CC2)c2nc(N3CCC(n4ccnn4)CC3)c(F)cc2c1=O,246 to 248
16,CCCC1CCC(C2CC3(C2)CC(C(F)(F)Oc2cc(F)c(F)c(F)c2)C3)CC1 (centres undefined),43
17,CC(=O)N(c1cccc(C(=O)O)c1)c1cc(C(C)(C)C)c(O)c(C(C)(C)C)c1,204 to 206
18,CC(C)Cc1sc(-c2nccs2)c2c1C(=O)CC(C)(C)C2,98 to 100
19,CCOC(=O)C1=C(C)NC(C)=C(C#N)C1c1ccnc2ncc(-c3ccccc3)cc12 (centres undefined),265
20,C=Cn1cc(C(=O)OCC)c(=O)c2cc(F)c(N3CCN(C)CC3)cc21,186 to 188

row,Compound,melting point [°C]
1,Cc1ccc(C(=O)C2=C(O)C(=O)N(c3ccc(C)nn3)C2c2ccc(C)cc2C)cc1 (centres undefined),254
2,O=C(O)c1ccc(OCCCn2ccnc2)cc1,218
3,CCn1c2c(c3ccc(OC)cc31)CN(C(=O)c1ccc(C)c3ccccc13)CC2,209 to 210
4,CC1(C)CC(N(CCCCCCN(c2nc(Cl)nc(Cl)n2)C2CC(C)(C)NC(C)(C)C2)c2nc(Cl)nc(Cl)n2)CC(C)(C)N1,161 to 163
5,CCOC(=O)Oc1ncc(F)c(N=CN(C)C)n1,124 to 126
6,COc1ccc(-c2cccc3c2OC(COS(=O)(=O)c2ccc(C)cc2)C3)c(OC)c1 (centres undefined),120 to 123
7,CCCCCN(CCCCC)C(=O)[C@H]1Cc2c([nH]c3ccccc23)CN1C(=O)Nc1cccc(C)c1,154 to 155
8,CCNC=C(C(=O)OCC)C(=O)c1cc(F)c(F)c(C)c1F,110
9,CN1CCN(C)c2c(N)cccc2C1=O,165 to 166
10,Sc1c(Br)cc(Br)cc1Br,114 to 116
11,CSc1ccc(C(=O)O)c([N+](=O)[O-])c1,165 to 168
12,COc1ccc(C[C@H](C[C@H](O)[C@H](Cc2ccccc2)NC(=O)OC(C)(C)C)C(=O)O)c(OC)c1,144 to 145
13,CC(=O)N(CCN1CCOCC1)C(C)C1(c2ccc(Cl)c(Cl)c2)CCC1 (centres undefined),121 to 122
14,Cc1cccnc1C(=O)NCCNC(=O)OC(C)(C)C,81 to 82
15,C=C(C)n1c(C)c(-c2ccc(F)cc2)c2cccnc21,84 to 87
16,CC(Nn1cncn1)(c1ccc(F)cc1)c1ccc(F)cc1,114 to 119
17,CCN(CC)CCC1CCN(C(=O)N2c3ccccc3C(=O)Nc3cccnc32)C1 (centres undefined),137 to 138
18,OCC(O)COc1cccc2cccnc12 (centres undefined),193 to 194
19,CCn1cc(C2(c3cccc(Br)c3)N=C(N)N(C)C2=O)cc1C=O (centres undefined),194 to 195
